This is an account of results in patent US20070088067A1, “Novel amidine compounds for treating microbial infections” (priority 2003, published 2007).

Where a name gives a salt, the structure may show the parent alone. Read-outs that look alike come from different tables or passages of the source.

Series [1] deals with Plasmodium falciparum (P.f.). Description: in vitro effectiveness against Plasmodium falciparum. In kind it is cell-based. An excerpt:
(§1) These compounds can thus be employed as treatments of second-stage human African trypanosomiasis.

Series [2] has as its system Trypanosoma brucei rhodesiense (T.b.r.). Description: in vitro effectiveness against Trypanosoma brucei rhodesiense. It counts as cell-based.
Text: as §1

Series [3] shares this test system. Description: in vivo effectiveness against T.b.r. (cures). Particulars: cures / animals treated.
Text: as §1

[4] abbreviates: Trypanosoma brucei, RHODESIENSE

`N#Cc1ccc(-c2cccc(C=O)n2)cc1` [Compound 6, 6-(4-Cyanophenyl)pyridine-2-carbaldehyde] had a melting point of 158 to 159 °C. Inhibition in series [1] (Plasmodium falciparum) was half-maximal at 25.5 nM (IC50). Further, in series [2] (setting [4]), 21.7 nM corresponded to half-maximal inhibition (IC50).
In the case of `c1cc(-c2nc3ccc(C4=NCCN4)cc3[nH]2)ccc1CCc1ccc(-c2nc3ccc(C4=NCCN4)cc3[nH]2)cc1` [Compound 24, 4,4′-Bis{2-[-6(2-imidazolino]benzimidazolyl}-1,2-diphenylethanetetrahydrochloride], the results for the half-maximal inhibitory concentration (IC50) in series [1] and in series [2] were 19.6 nM and 393 nM, respectively.
Consider `CC(=O)O.N=C(N)c1ccc(-c2cccc(-c3nc4ccc(C(=N)N)cc4[nH]3)n2)cc1` [Compound 36, 2-(5-Amidinobenzimidazol-2-yl)-6-(4-amidinophenyl)pyridine acetate salt], for which the IC50 in series [1] (Plasmodium falciparum) came to 9.7 nM; in series [2] (setting [4]), 24 nM. The “In vivo vs. T.b.r. cures” value in series [3] is 1/4.
`N=C(N)c1ccc(-c2ccc(-c3nc4cc(C(=N)N)ccc4o3)o2)cc1` [Compound 41]: the results for the half-inhibitory concentration (IC50) in series [1] (Plasmodium falciparum) and in series [2] (setting [4]) were 32 nM and 11 nM, respectively. In addition, in series [3], the “In vivo vs. T.b.r. cures” value is recorded as 4/4.
Consider `CSc1cc(-c2ccc(-c3ccc(NC(=N)N)c(SC)c3)o2)ccc1NC(=N)N` [Compound 42, 2,5-Bis(4-guanidino-3-thiomethoxyphenyl)furan Dihydrochloride], for which the half-maximal inhibitory concentration (IC50) in series [1] (Plasmodium falciparum) came out at 66 nM; in series [2] (setting [4]), 57 nM.
Consider `N=C(Nc1ccc(-c2ccc(-c3ccc(NC(=N)c4ccccn4)cc3O)o2)c(O)c1)c1ccccn1` [Compound 43, 2,5-Bis[2-hydroxy-4-(2-pyridylimino)amino]furan Dihydrochloride], for which the IC50 in series [1] (Plasmodium falciparum) is 5.1 nM; in series [2] (setting [4]), 32 nM.
Take `CCOc1cc(-c2ccc(-c3ccc(NC(=N)N)c(OCC)c3)o2)ccc1NC(=N)N` [Compound 44, 2,5-Bis(3-ethoxy-4-guanidinophenyl)furan dihydrochloride]: the IC50 in series [1] (Plasmodium falciparum) worked out at 14.7 nM; in series [2] (setting [4]), 40 nM.
For the compound `Cc1cc(C(=N)N)ccc1-c1ccc(-c2nc3ccc(C(=N)N)cc3[nH]2)o1` [Compound 45, 2-{2-[5(6)-Amidino]benzimidazolyl}-5-[(4-amidino-2-methyl)-phenyl]-furan trihydochloride], the half-inhibitory concentration (IC50) in series [1] is 147 nM; in series [2], 9.4 nM. In addition, the “In vivo vs. T.b.r. cures” value in series [3] was 2/4.
